Experimental data reported in US8987313B2, “Inhibitors of cytochrome P450” (Gilead Sciences, Inc., priority 2010, dated 2015).
Read-outs that look alike come from different tables or passages of the source. Values belong to the compound of their own block, whether it stands above or below them.

Target: CYP3A4 (Homo sapiens (Human), UniProt P08684)
Experiment: CYP3A Inhibition Assay (human hepatic microsomes; midazolam 1'-hydroxylase and testosterone 6β-hydroxylase activities)
Conditions: pooled human hepatic microsomal fraction
Experimental: Pooled (n≧15 donors) human hepatic microsomal fraction was obtained from BD-Gentest (Woburn, Mass.) who also supplied hydroxy-terfenadine, 4′-hydroxydiclofenac and NADPH regenerating system. Ritonavir was prepared from commercial Norvir® oral solution (Abbott Laboratories, Abbott Park, Ill.). Other reagents were from Sigma-Aldrich (St. Louis, Mo.) and included terfenadine, fexofenadine, BRL 15572, diclofenac and mefenamic acid.
Incubations were performed in duplicate in 50 mM potassium phosphate buffer, pH 7.4 with NADPH regenerating system used as described by the manufacturer. […] The final substrate concentrations used were equal to the apparent Km values for the activities determined under the same conditions. Inhibitors were dissolved in DMSO, and the final concentration of DMSO, from both substrate and inhibitor vehicles, was 1% (v/v). Incubations were performed at 37° C. with shaking and were initiated by addition of substrate. Aliquots were then removed at […]. Samples were quenched by treatment with an acetonitrile, formic acid, water (94.8%/0.2%/5%, v/v/v) mixture containing internal standard. Precipitated protein was removed by centrifugation at 3000 rpm for […] and aliquots of the supernatant were then subjected to LC-MS analysis.
The LC-MS system consisted of a Waters Acquity UPLC, with a binary solvent manager and a refrigerated (8° C.) sample organizer and sample manager, interfaced to a Micromass Quattro Premier tandem mass spectrometer operating in electrospray ionization mode. The column was a Waters Acquity UPLC BEH C18 2.1×50 mm, […]. Mobile phases consisted of mixtures of acetonitrile, formic acid and water, the composition for mobile phase A being 1%/0.2%/98.8% (v/v/v) and that for mobile phase B being 94.8%/0.2%/5% (v/v/v). The injection volumes were 5 μL and the flow rate was 0.8 mL/min. Concentrations of metabolites were determined by reference to standard curves generated with authentic analytes under the same conditions as the incubations.
IC50 values (the concentration of inhibitor reducing CYP3A activity by 50%) were calculated by non-linear regression using GraphPad Prism 4.0 software and a sigmoidal model.
For midazolam hydroxylase determination the final concentrations of microsomal protein and […] substrate were 0.25 mg/mL and 2.5 μM, respectively, and the LC-MS internal standard was 1α-hydroxytriazolam. […] After incubation at 37° C. for 5 minutes, metabolic reactions were terminated by treatment with quench solution containing the appropriate internal standard and were subsequently centrifuged before aliquots of the supernatant were removed and diluted with 0.1% (v/v) formic acid for LC-MS analysis.
For LC-MS analysis the column was a Phenomenex Synergi Max RP 4 μm column (50×2.0 mm) and the injection volume was 5 μL. The MS/MS ion current metabolite/internal standard peak area ratios (PAR) were measured on an Applied Biosystems SciEx API4000 triple quadrupole mass spectrometer coupled to a Leap CTC PAL autosampler with a 20 μL loop and a Shimadzu LC pump with a 25 μL mixer.

[1] = read-out: CYP3A4 IC50 (μM) (midazolam), midazolam 1'-hydroxylase activity
[2] = read-out: CYP3A4 IC50 (μM) (testosterone), testosterone 6β-hydroxylase activity

Sequence of CYP3A4 (P08684 whole entry): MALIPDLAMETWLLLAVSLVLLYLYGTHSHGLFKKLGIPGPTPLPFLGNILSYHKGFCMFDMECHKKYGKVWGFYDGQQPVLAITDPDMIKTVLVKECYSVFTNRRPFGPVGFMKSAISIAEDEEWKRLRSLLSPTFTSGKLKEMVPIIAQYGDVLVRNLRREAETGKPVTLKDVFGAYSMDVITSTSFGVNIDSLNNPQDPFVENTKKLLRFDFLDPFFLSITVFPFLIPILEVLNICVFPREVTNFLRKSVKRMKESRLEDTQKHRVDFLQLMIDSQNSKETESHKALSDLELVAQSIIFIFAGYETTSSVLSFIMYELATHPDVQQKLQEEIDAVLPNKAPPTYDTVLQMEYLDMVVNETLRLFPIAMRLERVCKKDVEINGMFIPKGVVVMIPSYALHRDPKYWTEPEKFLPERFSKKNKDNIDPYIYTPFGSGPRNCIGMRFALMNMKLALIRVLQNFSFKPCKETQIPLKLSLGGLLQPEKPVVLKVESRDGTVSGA

SMILES: CC(C)c1nc(CN(C)C(=O)N2Cc3nc[nH]c3C[C@H]2C(=O)N[C@H](CC[C@H](Cc2ccccc2)NC(=O)OCc2cncs2)Cc2ccccc2)cs1 [Compound 49]
IC50 [1]: 0.19 µM
IC50 [2]: 0.37 µM

SMILES: CN[C@H]1C[C@@H](C(=O)N[C@H](CC[C@H](Cc2ccccc2)NC(=O)OCc2cncs2)Cc2ccccc2)N(C(=O)N(C)Cc2csc(C(C)C)n2)C1 [Compound 30]
IC50 [1]: 0.17 µM
IC50 [2]: 0.36 µM

SMILES: CC(C)c1nc(CN(C)C(=O)N2CCC[C@H]2C(=O)N[C@H](CC[C@H](Cc2ccccc2)NC(=O)OCc2cncs2)Cc2ccccc2)cs1 [Compound 39]
IC50 [1]: 0.13 µM
IC50 [2]: 0.26 µM

SMILES: CC(C)c1nc(CN(C)C(=O)N2CS(=O)(=O)C[C@H]2C(=O)N[C@H](CC[C@H](Cc2ccccc2)NC(=O)OCc2cncs2)Cc2ccccc2)cs1 [Compound 18]
IC50 [1]: 0.16 µM
IC50 [2]: 0.26 µM

IC50 [1]: < 0.1 µM
IC50 [2]: 0.37 µM
SMILES: CC(=O)N[C@H]1C[C@@H](C(=O)N[C@H](CC[C@H](Cc2ccccc2)NC(=O)OCc2cncs2)Cc2ccccc2)N(C(=O)N(C)Cc2csc(C(C)C)n2)C1 [Compound 36]

SMILES: CC(C)c1nc(CN(C)C(=O)N2C[C@@H](N)C[C@H]2C(=O)N[C@H](CC[C@H](Cc2ccccc2)NC(=O)OCc2cncs2)Cc2ccccc2)cs1 [Compound 29]
IC50 [1]: 0.19 µM
IC50 [2]: 0.31 µM

SMILES: CC(C)c1nc(CN(C)C(=O)N2CCC[C@@H]2C(=O)N[C@H](CC[C@H](Cc2ccccc2)NC(=O)OCc2cncs2)Cc2ccccc2)cs1 [Compound 42]
IC50 [1]: 0.11 µM
IC50 [2]: 0.25 µM

SMILES: CC(C)c1nc(CN(C)C(=O)N2C[C@H](O)C[C@H]2C(=O)N[C@@H](CC[C@@H](Cc2ccccc2)NC(=O)OCc2cncs2)Cc2ccccc2)cs1 [Compound 11]
IC50 [1]: 0.12 µM
IC50 [2]: 0.3 µM

SMILES: CC(C)c1nc(CN(C)C(=O)N2C[C@H](O)C[C@H]2C(=O)N[C@H](CC[C@H](Cc2ccccc2)NC(=O)OCc2cncs2)Cc2ccccc2)cs1 [Compound 5]
IC50 [1]: 0.16 µM
IC50 [2]: 0.23 µM

SMILES: CC(C)c1nc(CN(C)C(=O)NC2(C(=O)N[C@H](CC[C@H](Cc3ccccc3)NC(=O)OCc3cncs3)Cc3ccccc3)CCN(C)CC2)cs1 [Compound 21]
IC50 [1]: 0.19 µM
IC50 [2]: 0.34 µM

IC50 [1]: 0.15 µM
IC50 [2]: 0.33 µM
SMILES: CC(C)c1nc(CN(C)C(=O)N2C[C@@H](N(C)C)C[C@H]2C(=O)N[C@H](CC[C@H](Cc2ccccc2)NC(=O)OCc2cncs2)Cc2ccccc2)cs1 [Compound 31]

SMILES: CC(C)c1nc(CN(C)C(=O)N2CCN(C)C[C@H]2C(=O)N[C@H](CC[C@H](Cc2ccccc2)NC(=O)OCc2cncs2)Cc2ccccc2)cs1 [Compound 25]
IC50 [1]: 0.14 µM
IC50 [2]: 0.3 µM

SMILES: CC(C)c1nc(CN(C)C(=O)N2C[C@@H](O)C[C@H]2C(=O)N[C@H](CC[C@H](Cc2ccccc2)NC(=O)OCc2cncs2)Cc2ccccc2)cs1 [Compound 8]
IC50 [1]: 0.17 µM
IC50 [2]: 0.24 µM
